Laboratory results reported in ChEMBL document CHEMBL1155368, “Derivatives of aryl amines containing the cytotoxic 1,4-dioxo-2-butenyl pharmacophore” (Bioorg Med Chem Lett, 2010).

Experiments:
CCRF-CEM = assay: Cytotoxicity against human CEM cells; assay type: functional, cell-based
L1210 = assay: Cytotoxicity against mouse L1210 cells; assay type: functional, cell-based
Mus musculus [1] = assay: Toxicity in mouse assessed as mortality at 30 to 300 mg/kg, ip after 0.5 to 4 hrs; assay type: organism-based; design: dose 30-300 mg/kg, route intraperitoneal; settings: in vivo
[2] = Cytotoxicity against human Molt4/C8 cells; assay type: functional, cell-based; settings: MOLT-4
[3] = target: T1, Glycylpeptide N-tetradecanoyltransferase 1 (Homo sapiens, UniProt P30419); assay: Inhibition of human NMT expressed in Escherichia coli DH5alpha cells
T1 sequence (P30419 whole entry): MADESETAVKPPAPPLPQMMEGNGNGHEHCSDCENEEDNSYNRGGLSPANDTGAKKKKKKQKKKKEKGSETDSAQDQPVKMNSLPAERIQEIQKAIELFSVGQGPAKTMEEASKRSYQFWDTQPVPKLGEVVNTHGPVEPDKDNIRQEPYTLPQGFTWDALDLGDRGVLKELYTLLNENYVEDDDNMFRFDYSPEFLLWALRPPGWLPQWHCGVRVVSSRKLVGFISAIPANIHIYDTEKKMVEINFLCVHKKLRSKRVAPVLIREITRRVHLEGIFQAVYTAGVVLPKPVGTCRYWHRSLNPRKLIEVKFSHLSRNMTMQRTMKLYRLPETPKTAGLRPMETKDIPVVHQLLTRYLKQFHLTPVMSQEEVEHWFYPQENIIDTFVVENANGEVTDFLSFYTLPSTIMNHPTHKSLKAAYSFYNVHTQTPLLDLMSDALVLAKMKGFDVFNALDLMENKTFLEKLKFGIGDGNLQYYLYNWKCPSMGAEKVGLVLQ

Mus musculus [4] = assay: Toxicity in mouse assessed as mortality at 100 mg/kg, ip after 4 hrs; assay type: organism-based; design: dose 100 mg/kg, route intraperitoneal; settings: in vivo
Mus musculus [5] = assay: Toxicity in mouse assessed as mortality at 300 mg/kg, ip after 4 hrs; assay type: organism-based; design: dose 300 mg/kg, route intraperitoneal; settings: in vivo
Mus musculus [6] = assay: Toxicity in mouse assessed as mortality at 30 mg/kg, ip after 4 hrs; assay type: organism-based; design: dose 30 mg/kg, route intraperitoneal; settings: in vivo

SMILES | IC50 (CCRF-CEM) [µM] | IC50 (L1210) [µM] | Activity (Mus musculus [1]) | IC50 [2] [µM] | IC50 [3] [µM] | Activity (Mus musculus [4]) | Activity (Mus musculus [5]) | Activity (Mus musculus [6])
O=C1CCC(=O)N1c1ccccc1 | > 500 | > 500 | Non-toxic | > 500 | – | – | – | –
COC(=O)/C=C/C(=O)Nc1ccc(C)c(C)c1 | 7.6 | 2.2 | Non-toxic | 4.6 | 2330 | – | – | –
O=C(O)/C=C/C(=O)Nc1ccc(Cl)c(Cl)c1 | 209 | 314 | Non-toxic | 214 | – | – | – | –
COC(=O)/C=C\C(=O)Nc1ccc(Cl)cc1 | 95 | 78 | Non-toxic | 41 | – | – | – | –
COC(=O)/C=C/C(=O)Nc1c(C)cccc1C | 31 | 34 | Non-toxic | 26 | – | – | – | –
COc1ccc(NC(=O)/C=C/C(=O)O)cc1 | > 500 | > 500 | Non-toxic | > 500 | – | – | – | –
Cc1ccc(N2C(=O)CCC2=O)cc1 | 42 | 7.8 | – | 43 | – | Toxic | Toxic | –
CC(=O)c1ccc(/N=C2\C=CC(=O)O2)cc1 | 205 | 219 | – | 214 | – | – | – | –
O=C1CCC(=O)N1c1ccc(Cl)cc1 | 231 | 194 | – | 218 | – | Toxic | Toxic | –
Cc1cccc(C)c1NC(=O)/C=C/C(=O)O | > 500 | > 500 | Non-toxic | > 500 | – | – | – | –
Cc1ccc(NC(=O)/C=C/C(=O)O)cc1C | > 500 | 466 | Non-toxic | > 500 | – | – | – | –
O=C1C=CC(=O)N1c1ccccc1 | 217 | 164 | – | 207 | – | Toxic | Toxic | Toxic
COC(=O)/C=C/C(=O)Nc1ccccc1 | 40 | 40 | Non-toxic | 42 | – | – | – | –
CC(=O)c1ccc(N2C(=O)CCC2=O)cc1 | 215 | 31 | – | 93 | – | Toxic | Toxic | –
COC(=O)/C=C\C(=O)Nc1ccccc1 | > 500 | > 500 | – | > 500 | – | – | – | –
COC(=O)CCC(=O)Nc1ccccc1 | > 500 | > 500 | – | > 500 | – | – | – | –
COC(=O)/C=C\C(=O)Nc1ccc(C)cc1 | 36 | 47 | – | 37 | > 10000 | – | – | –
O=C1CCC(=O)N1c1ccc([N+](=O)[O-])cc1 | 202 | 41 | – | 210 | – | Toxic | Toxic | –
COC(=O)/C=C\C(=O)Nc1ccc(C(C)=O)cc1 | 44 | 184 | – | 50 | – | – | Toxic | –
O=C(O)/C=C/C(=O)Nc1ccc(Cl)cc1 | > 500 | > 500 | Non-toxic | > 500 | – | – | – | –
Cc1ccc(/N=C2\C=CC(=O)O2)cc1 | 357 | 271 | – | 301 | – | – | – | –
CC(=O)c1ccc(NC(=O)/C=C/C(=O)O)cc1 | > 500 | > 500 | Non-toxic | > 500 | – | – | – | –

SMILES | IC50 (CCRF-CEM) [µM] | IC50 (L1210) [µM] | Activity (Mus musculus [1]) | IC50 [2] [µM] | IC50 [3] [µM] | Activity (Mus musculus [4]) | Activity (Mus musculus [5]) | Activity (Mus musculus [6])
COC(=O)/C=C\C(=O)Nc1ccc([N+](=O)[O-])cc1 | 190 | 208 | – | 210 | – | – | Toxic | –
COC(=O)/C=C\C(=O)Nc1c(C)cccc1C | 183 | 184 | – | 192 | – | – | – | –
O=C1C=C/C(=N\c2ccc(Cl)cc2)O1 | 182 | 59 | – | 30 | – | – | – | –
Cc1ccc(NC(=O)/C=C/C(=O)O)cc1 | > 500 | > 500 | Non-toxic | > 500 | – | – | – | –
COC(=O)/C=C/C(=O)Nc1ccc([N+](=O)[O-])cc1 | 11 | 6.2 | Non-toxic | 7.3 | – | – | – | –
COc1ccc(/N=C2\C=CC(=O)O2)cc1 | > 500 | > 500 | – | > 500 | – | – | – | –
COC(=O)/C=C\C(=O)Nc1ccc(Cl)c(Cl)c1 | 55 | 39 | – | 41 | – | – | Toxic | –
COC(=O)/C=C/C(=O)Nc1ccc(C)cc1 | 15 | 9.3 | – | 21 | – | Toxic | – | –
O=C1C=C/C(=N\c2ccc([N+](=O)[O-])cc2)O1 | 161 | 69 | – | 60 | – | – | Toxic | –
O=C(O)CCC(=O)Nc1ccccc1 | > 500 | > 500 | – | > 500 | – | – | – | –
COC(=O)/C=C/C(=O)Nc1ccc(Cl)cc1 | 9.6 | 7.5 | Non-toxic | 8.2 | – | – | – | –
COC(=O)/C=C/C(=O)Nc1ccc(OC)cc1 | 37 | 18 | Non-toxic | 10 | – | – | – | –
COc1ccc(N2C(=O)CCC2=O)cc1 | 295 | 225 | – | 281 | – | Toxic | Toxic | –
O=C1C=C/C(=N\c2ccc(Cl)c(Cl)c2)O1 | 54 | 47 | – | 58 | – | – | Toxic | –
COC(=O)/C=C\C(=O)Nc1ccc(C)c(C)c1 | 228 | 202 | – | 188 | – | – | – | –
O=C1C=C/C(=N\c2ccccc2)O1 | > 500 | > 500 | – | > 500 | – | – | – | –
COC(=O)/C=C/C(=O)Nc1ccc(Cl)c(Cl)c1 | 4.8 | 0.37 | Non-toxic | 2.4 | – | – | – | –
O=C(O)/C=C/C(=O)Nc1ccccc1 | > 500 | > 500 | Non-toxic | > 500 | – | – | – | –
COC(=O)/C=C/C(=O)Nc1ccc(C(C)=O)cc1 | 32 | 17 | – | 35 | – | – | – | –
Cc1ccc(/N=C2\C=CC(=O)O2)cc1C | 195 | 69 | – | 161 | – | – | – | –
N[C@@H](Cc1ccc(N(CCCl)CCCl)cc1)C(=O)O [MELPHALAN] | 2.5 | 2.1 | – | 3.2 | – | – | – | –
O=C(O)/C=C/C(=O)Nc1ccc([N+](=O)[O-])cc1 | > 500 | > 500 | Non-toxic | 236 | – | – | – | –
